From patent US20170290915A1, “METHODS FOR DELIVERING AN ANTI-CANCER AGENT TO A TUMOR” (priority 2010, published 2017)
“And” between values parts separate entries of the source, which are not always exact repeats. Equal entries are not always repeated.

Legend:
[1] = Evans blue dye (EBD) delivery to tumor, thermal enhancement ratio (TER); type: in vivo, mice
Description: Mouse sarcoma S-180 cells were propagated by intraperitoneal injection (5×10^6 S-180 cells in 1 ml phosphate buffered saline (PBS)) in female CD-1 mice (4-6 weeks old) and allowed to grow until 15% weight gain was observed. Animals were then euthanized by CO2 gas inhalation and the cells were harvested from the abdominal cavity. The cells were then washed to remove blood, diluted and subcutaneously injected into each flank of the animal (2×10^6 cells/flank in 200 μl PBS) while anesthetized with isofluorane. Tumors were then allowed to grow until average tumor volume reached 50-100 mm^3 (usually 7-10 days).
The animals were separated randomly into groups. Half received 200 μl of GNRs (9.6 mg/kg, OD=120) and the other half saline by intravenous injection through the tail vein. After 24 hours, enough time for the GNRs to accumulate in the tumor at 1.22% injected dosed based on previous experiments and other reports in the literature (Dickerson et al., 2008), the animals were anesthetized and the areas around the tumors were shaved and swabbed with 50% propylene glycol to enhance laser penetration depth. After 20 minutes EBD (10 mg/kg in 200 μl saline) was injected intravenously and a 33 gauge needle thermocouple (Omega #HYPO-33-1-T-G-60-SMPW-M) was inserted into the center of the tumor to monitor tumor temperatures. After roughly 10 seconds that temperature data was collected, an 808 nm fiber coupled laser diode (Oclaro #BMU6-808-02-R01) with collimating lens (Thorlabs #F810SMA-780, spot size=7 mm) was directed over the right tumor and radiated. Two different laser powers were used in this study (1.6 and 1.2 W/cm^2) such that one group received severe and the other moderate tumor hyperthermia. After 10 minutes of radiation, the laser was turned off and tumors were allowed to cool for two minutes before removal of the temperature probe.
After the animals were allowed to rest for 5 hours, enough time for the EBD to be cleared from the blood, the animals were sacrificed by CO2 inhalation. Both tumors were collected, weighed and the EBD was extracted in 1.5 ml of formamide for 48 hrs at 60° C. The EBD content was then measured spectrophotometrically at 620 nm and divided by the weight of the tumor. The extravasation of EBD was then calculated as a ratio of the right (treated) to left (untreated) tumor and expressed as a thermal enhancement ratio (TER).

αvβ3 integrins = molecular target: T1, αvβ3 integrins (Homo sapiens, UniProt P05106+P06756); test: Competitive inhibition of RGDfK-GNR binding with echistatin; type: cell-based; details: echistatin 50 nM co-incubation; HUVECs; 4° C. for 2 hours; binding buffer
T1 construct: endogenous in cells; host or cells: HUVEC
Description: Confirmation of RGDfK-GNR specificity to αvβ3 integrins was performed by competitive inhibition of binding with echistatin. In brief, HUVEC cells were grown to 50% confluency on fibronectin coated cover slips. The media was then removed and replaced with cold binding buffer (20 mmol/L Tris, pH 7.4, 150 mmol/L NaCl, 2 mmol/L CaCl2, 1 mmol/L MgCl2, 1 mmol/L MnCl2, 0.1% bovine serum albumin) containing RGDfK-GNRs (10 μg/ml) and HUVECs were co-incubated at 4° C. for 2 hours with or without 50 nM echistatin (Sigma-Aldrich). Cells were then washed three times with cold binding buffer, mounted to a slide and imaged by high-resolution dark field microscopy.

Compound	TER (EBD in treated/untreated tumor) ([1]; Laser alone (no GNRs), 1.2 W/cm^2)	TER (EBD in treated/untreated tumor) ([1]; Laser alone (no GNRs), 1.6 W/cm^2)	TER (EBD in treated/untreated tumor) ([1]; PPTT (GNRs + laser), 1.2 W/cm^2)	TER (EBD in treated/untreated tumor) ([1]; PPTT (GNRs + laser), 1.6 W/cm^2, EBD 10 mg/kg i.v., 5 hours)	TER ([1]; laser treatment without the presence of GNRs (power not specified))	Inhibition of RGDfK-GNR binding to the cell's surface (αvβ3 integrins)
Cc1cc(-c2ccc(/N=N/c3ccc4c(S(=O)(=O)[O-])cc(S(=O)(=O)[O-])c(N)c4c3O)c(C)c2)ccc1/N=N/c1ccc2c(S(=O)(=O)[O-])cc(S(=O)(=O)[O-])c(N)c2c1O.[Na+].[Na+].[Na+].[Na+] [EBD, Evans blue dye]	0.94 ± 0.25	1.05 ± 0.15	1.68 and 1.68 ± 0.65	1.82 and 1.82 ± 0.40	around 1.0	–
echistatin	–	–	–	–	–	almost complete inhibition
